Reference: patent publication US9593108B2, “Compounds and methods for antiviral treatment” (PTC Therapeutics, Inc., priority 2009, dated 2017)

Key:
[1] = tested on: HCV replicon RNA (GenBank Accession No. AJ242654); assay: HCV Replicon Assay (replicon RNA reduction and/or Fluc reporter signal); assay type: cell-based, Hepatitis C virus; settings: Hepatitis C virus, 72 h, replicon-containing cells cultured with test compound for up to 3 days
How it was run: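 IC50 values mostly reflect the drop in replicon RNA, though Fluc reporter signal may also be used. Compound incubated with cells carrying the bicistronic replicon for as long as 3 days; interferon served as positive control.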

| SMILES | IC50 [1] | melting point |
| --- | --- | --- |
| C[C@@H](NS(=O)(=O)c1ccc(-c2c(C#N)c3cc(C(F)(F)F)cnc3n2C2CCC2)nc1)C(F)(F)F [Cpd 228, 6-[3-cyano-1-cyclobutyl-5-(trifluoromethyl)-1H-pyrrolo[2,3-b]pyridin-2-yl]-N-[(2R)-1,1,1-trifluoropropan-2-yl]pyridine-3-sulfonamide] | < 500 nM | 190 to 192 °C |
| C[C@H](NS(=O)(=O)c1ccc(-c2c(C#N)c3cc(C(F)(F)F)cnc3n2C2CCCC2)nc1)C(F)(F)F [Cpd 229, 6-[3-cyano-1-cyclopentyl-5-(trifluoromethyl)-1H-pyrrolo[2,3-b]pyridin-2-yl]-N-[(2S)-1,1,1-trifluoropropan-2-yl]pyridine-3-sulfonamide] | < 500 nM | 205 to 207 °C |
| C[C@@H](NS(=O)(=O)c1ccc(-c2c(C#N)c3cc(C(F)(F)F)cnc3n2C2CCCC2)nc1)C(F)(F)F [Cpd 230, 6-[3-cyano-1-cyclopentyl-5-(trifluoromethyl)-1H-pyrrolo[2,3-b]pyridin-2-yl]-N-[(2R)-1,1,1-trifluoropropan-2-yl]pyridine-3-sulfonamide] | < 500 nM | 208 to 210 °C |
| CC[C@H](NS(=O)(=O)c1ccc(-c2c(C#N)c3cc(OC)cnc3n2C2CCC2)nc1)C(F)(F)F [Cpd 232, 6-(3-cyano-1-cyclobutyl-5-methoxy-1H-pyrrolo[2,3-b]pyridin-2-yl)-N-[(2S)-1,1,1-trifluorobutan-2-yl]pyridine-3-sulfonamide] | < 500 nM | 186 to 191 °C |
| CC[C@H](NS(=O)(=O)c1ccc(-c2c(C#N)c3cc(Cl)cnc3n2C2CCCC2)nc1)C(F)(F)F [Cpd 233, 6-(5-chloro-3-cyano-1-cyclopentyl-1H-pyrrolo[2,3-b]pyridin-2-yl)-N-[(2S)-1,1,1-trifluorobutan-2-yl]pyridine-3-sulfonamide] | < 500 nM | 180 to 185 °C |
| C[C@H](NS(=O)(=O)c1ccc(-c2c(C#N)c3ncc(Cl)cc3n2C2CCC2)nc1)C(F)(F)F [Cpd 234, 6-(6-chloro-3-cyano-1-cyclobutyl-1H-pyrrolo[3,2-b]pyridin-2-yl)-N-[(2S)-1,1,1-trifluoropropan-2-yl]pyridine-3-sulfonamide] | < 500 nM | 201 to 205 °C |
| C[C@H](NS(=O)(=O)c1ccc(-c2c(C#N)c3ncc(Cl)cc3n2C2CCC2)cc1)C(F)(F)F [Cpd 235, 4-(6-chloro-3-cyano-1-cyclobutyl-1H-pyrrolo[3,2-b]pyridin-2-yl)-N-[(2S)-1,1,1-trifluoropropan-2-yl]benzenesulfonamide] | 500 to 2000 nM | 205 to 210 °C |
| COc1cnc2c(c1)c(C#N)c(-c1ccc(S(=O)(=O)N[C@@H](C)C(F)(F)F)c[n+]1[O-])n2C1CCC1 [Cpd 236, 6-(3-cyano-1-cyclobutyl-5-methoxy-1H-pyrrolo[2,3-b]pyridin-2-yl)-N-[(2S)-1,1,1-trifluoropropan-2-yl]pyridine-3-sulfonamide 1-oxide] | 2000 to 5000 nM | 155 to 157 °C |
| C[C@H](NS(=O)(=O)c1ccc(-c2c(C#N)c3cc(-c4cccs4)cnc3n2C2CCC2)nc1)C(F)(F)F [Cpd 237, 6-[3-cyano-1-cyclobutyl-5-(thiophen-2-yl)-1H-pyrrolo[2,3-b]pyridin-2-yl]-N-[(2S)-1,1,1-trifluoropropan-2-yl]pyridine-3-sulfonamide] | 2000 to 5000 nM | 206 to 208 °C |
| C[C@@H](NS(=O)(=O)c1ccc(-c2c(C#N)c3cc(-c4cccs4)cnc3n2C2CCC2)nc1)C(F)(F)F [Cpd 238, 6-[3-cyano-1-cyclobutyl-5-(thiophen-2-yl)-1H-pyrrolo[2,3-b]pyridin-2-yl]-N-[(2R)-1,1,1-trifluoropropan-2-yl]pyridine-3-sulfonamide] | 2000 to 5000 nM | 198 to 199 °C |
| C[C@H](NS(=O)(=O)c1ccc(-c2c(C#N)c3cc(N4CCCC4)cnc3n2C2CCC2)nc1)C(F)(F)F [Cpd 239, 6-[3-cyano-1-cyclobutyl-5-(pyrrolidin-1-yl)-1H-pyrrolo[2,3-b]pyridin-2-yl]-N-[(2S)-1,1,1-trifluoropropan-2-yl]pyridine-3-sulfonamide] | 500 to 2000 nM | 207 to 209 °C |
| C[C@@H](NS(=O)(=O)c1ccc(-c2c(C#N)c3cc(N4CCCC4)cnc3n2C2CCC2)nc1)C(F)(F)F [Cpd 240, 6-[3-cyano-1-cyclobutyl-5-(pyrrolidin-1-yl)-1H-pyrrolo[2,3-b]pyridin-2-yl]-N-[(2R)-1,1,1-trifluoropropan-2-yl]pyridine-3-sulfonamide] | 500 to 2000 nM | 207 to 209 °C |
| COc1cc2c(C#N)c(-c3ccc(S(=O)(=O)N[C@@H](C)C(F)(F)F)cn3)n(C3CCC3)c2nc1C [Cpd 242, 6-(3-cyano-1-cyclobutyl-5-methoxy-6-methyl-1H-pyrrolo[2,3-b]pyridin-2-yl)-N-[(2S)-1,1,1-trifluoropropan-2-yl]pyridine-3-sulfonamide] | < 500 nM | 175 to 177 °C |
| COc1cc2c(C#N)c(-c3ccc(S(=O)(=O)N[C@H](C)C(F)(F)F)cn3)n(C3CCC3)c2nc1C [Cpd 243, 6-(3-cyano-1-cyclobutyl-5-methoxy-6-methyl-1H-pyrrolo[2,3-b]pyridin-2-yl)-N-[(2R)-1,1,1-trifluoropropan-2-yl]pyridine-3-sulfonamide] | 2000 to 5000 nM | 175 to 177 °C |
| CC(C)NS(=O)(=O)c1ccc(-c2c(C#N)c3cc(C(F)(F)F)cnc3n2C2CCC2)nc1 [Cpd 244, 6-[3-cyano-1-cyclobutyl-5-(trifluoromethyl)-1H-pyrrolo[2,3-b]pyridin-2-yl]-N-(propan-2-yl)pyridine-3-sulfonamide] | < 500 nM | 186 to 187 °C |
| CCCS(=O)(=O)Nc1ccc(-c2c(C#N)c3cc(C(F)(F)F)cnc3n2C2CCC2)cc1 [Cpd 247, N-{4-[3-cyano-1-cyclobutyl-5-(trifluoromethyl)-1H-pyrrolo[2,3-b]pyridin-2-yl]phenyl}propane-1-sulfonamide] | 500 to 2000 nM | 180 to 181 °C |
| COc1cnc2c(c1)c(C#N)c(-c1ccc(S(=O)(=O)N[C@@H](C)C(F)(F)F)cn1)n2C1CCCC1 [Cpd 248, 6-(3-cyano-1-cyclopentyl-5-methoxy-1H-pyrrolo[2,3-b]pyridin-2-yl)-N-[(2S)-1,1,1-trifluoropropan-2-yl]pyridine-3-sulfonamide] | < 500 nM | 178 to 180 °C |
| C[C@@H](NS(=O)(=O)c1ccc(-c2c(C#N)c3cc(C4CC4)cnc3n2C2CCCC2)nc1)C(F)(F)F [Cpd 249, 6-(3-cyano-1-cyclopentyl-5-cyclopropyl-1H-pyrrolo[2,3-b]pyridin-2-yl)-N-[(2R)-1,1,1-trifluoropropan-2-yl]pyridine-3-sulfonamide] | 500 to 2000 nM | 155 to 164 °C |
| C[C@H](NS(=O)(=O)c1ccc(-c2c(C#N)c3cc(C4CC4)cnc3n2C2CCCC2)nc1)C(F)(F)F [Cpd 250, 6-(3-cyano-1-cyclopentyl-5-cyclopropyl-1H-pyrrolo[2,3-b]pyridin-2-yl)-N-[(2S)-1,1,1-trifluoropropan-2-yl]pyridine-3-sulfonamide] | < 500 nM | 157 to 167 °C |
